What is called IC50 is the concentration needed to halve the response being measured.

The target of one assay is Butyrylcholinesterase (Equus caballus, UniProt Q9N1N9). As to the kind of experiment: Inhibition of horse serum BChE.
Assay [1] can be described thus: Selectivity for horse serum BChE over electric eel AChE.
The target of a further assay is Acetylcholinesterase (Electrophorus electricus, UniProt O42275). As to the kind of experiment: Inhibition of electric eel AChE.
[2] abbreviates: read-out: -Log IC50 (converted).

The structures appear in SMILES notation.

Chain of Acetylcholinesterase (O42275 whole entry): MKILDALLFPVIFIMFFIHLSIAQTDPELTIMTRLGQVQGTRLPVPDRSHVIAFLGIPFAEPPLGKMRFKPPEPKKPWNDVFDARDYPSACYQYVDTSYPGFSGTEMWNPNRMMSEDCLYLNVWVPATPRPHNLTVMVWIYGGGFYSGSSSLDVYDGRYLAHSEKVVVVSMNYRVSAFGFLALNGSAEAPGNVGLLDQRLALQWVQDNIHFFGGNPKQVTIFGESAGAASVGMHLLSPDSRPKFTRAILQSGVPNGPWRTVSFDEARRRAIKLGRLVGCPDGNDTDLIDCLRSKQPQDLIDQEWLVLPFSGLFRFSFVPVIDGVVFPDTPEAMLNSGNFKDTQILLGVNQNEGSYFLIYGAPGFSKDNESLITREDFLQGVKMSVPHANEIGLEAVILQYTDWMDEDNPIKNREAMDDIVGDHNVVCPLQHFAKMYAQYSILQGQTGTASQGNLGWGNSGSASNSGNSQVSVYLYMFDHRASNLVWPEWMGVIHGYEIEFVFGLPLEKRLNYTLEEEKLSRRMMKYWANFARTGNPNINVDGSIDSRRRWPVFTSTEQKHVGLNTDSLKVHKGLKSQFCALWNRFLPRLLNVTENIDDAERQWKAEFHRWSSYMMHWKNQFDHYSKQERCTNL
Chain of Butyrylcholinesterase (Q9N1N9 whole entry): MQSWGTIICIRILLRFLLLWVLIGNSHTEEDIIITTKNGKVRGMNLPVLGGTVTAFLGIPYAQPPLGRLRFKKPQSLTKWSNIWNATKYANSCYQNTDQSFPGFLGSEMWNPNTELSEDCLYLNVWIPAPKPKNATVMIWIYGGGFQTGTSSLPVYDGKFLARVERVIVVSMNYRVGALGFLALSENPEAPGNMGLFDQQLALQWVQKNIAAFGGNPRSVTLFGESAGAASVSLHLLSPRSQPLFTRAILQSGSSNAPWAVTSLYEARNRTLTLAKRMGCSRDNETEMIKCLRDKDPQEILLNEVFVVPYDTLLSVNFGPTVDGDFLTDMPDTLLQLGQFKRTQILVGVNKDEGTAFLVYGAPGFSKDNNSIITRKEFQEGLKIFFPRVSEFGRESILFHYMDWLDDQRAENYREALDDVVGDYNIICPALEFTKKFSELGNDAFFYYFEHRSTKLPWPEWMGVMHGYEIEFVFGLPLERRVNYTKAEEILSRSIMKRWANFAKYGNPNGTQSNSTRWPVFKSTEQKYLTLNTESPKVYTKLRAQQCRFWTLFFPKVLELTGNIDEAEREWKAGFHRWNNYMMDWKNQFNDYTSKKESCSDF

Consider `c1ccc2/c(=N/CCCCCCC/N=c3\c4ccccc4nc4n3CCCCCC4)n3c(nc2c1)CCCCCC3`, for which the IC50 was determined as 27 nM at Butyrylcholinesterase (read-out: IC50) and 65 nM at Acetylcholinesterase. Also, the Ratio IC50 in assay [1] amounted to 2.4.

With `N=c1c2ccccc2nc2n1CCCCCC2`, the IC50 on Butyrylcholinesterase (read-out: IC50) is 3000 nM; at Acetylcholinesterase it was 14600 nM. Moreover, in assay [1], the Ratio IC50 was 4.9.

For the compound `c1ccc2/c(=N/CCCCCCC/N=c3\c4ccccc4nc4n3CCCC4)n3c(nc2c1)CCCC3`, the IC50 on Butyrylcholinesterase (read-out: IC50) came out at 8.5 nM; against Acetylcholinesterase, 77 nM. For the same compound, the Ratio IC50 in assay [1] worked out at 9.

Turning to `c1ccc2/c(=N/CCCCCCCC/N=c3/c4ccccc4nc4n3CCCCCC4)n3c(nc2c1)CCCCCC3`, the IC50 stood at 76 nM at Butyrylcholinesterase (read-out: IC50) and 14400 nM at Acetylcholinesterase. In addition, the Ratio IC50 in assay [1] was 189.

On to `Clc1ccc2/c(=N/CCCCCCC/N=c3\c4ccc(Cl)cc4nc4n3CCC4)n3c(nc2c1)CCC3`, for which the 50% inhibitory concentration (IC50) is 61 nM on Butyrylcholinesterase (read-out: IC50) and 59 nM at Acetylcholinesterase. The Ratio IC50 in assay [1] came to 1.

In the case of `c1ccc2/c(=N/CCCCCCCC/N=c3/c4ccccc4nc4n3CCC4)n3c(nc2c1)CCC3`, the IC50 at Butyrylcholinesterase (read-out: IC50) was 4.8 nM; against Acetylcholinesterase it was 58 nM. Moreover, the Ratio IC50 in assay [1] turned out to be 12.

Turning to `Clc1ccc2c(c1)N=C1CCCN1C2NCCCCCCCC/N=c1/c2ccc(Cl)cc2nc2n1CCC2` (stereo unspecified), the IC50 was 45.4 nM on Butyrylcholinesterase (read-out: IC50) and 50.2 nM at Acetylcholinesterase. Also, the Ratio IC50 in assay [1] came out at 1.1.

As for `c1ccc2/c(=N/CCCCCCCC/N=c3/c4ccccc4nc4n3CCCC4)n3c(nc2c1)CCCC3`, the IC50 was found to be 7.6 nM on Butyrylcholinesterase (read-out: IC50) and 37 nM against Acetylcholinesterase. Moreover, the Ratio IC50 in assay [1] turned out to be 4.9.

On to `c1ccc2/c(=N/CCCCCCCC/N=c3/c4ccccc4nc4n3CCCCC4)n3c(nc2c1)CCCCC3`, for which the IC50 stood at 13 nM at Butyrylcholinesterase (read-out: IC50) and 1280 nM against Acetylcholinesterase. The Ratio IC50 in assay [1] was found to be 98.

`CCCC/N=c1/c2ccc(Cl)cc2nc2n1CCC2`: the IC50 at Butyrylcholinesterase (read-out: IC50) amounted to 2300 nM. Further, the Ratio IC50 in assay [1] came to 1.7.

Regarding `CCCC/N=c1/c2ccccc2nc2n1CCC2`, the IC50 was found to be 5500 nM at Butyrylcholinesterase (read-out: IC50) and 9500 nM against Acetylcholinesterase. In assay [1], the Ratio IC50 turned out to be 1.7.

In the case of `N=c1c2ccccc2nc2n1CCC2`, the IC50 was 716 nM at Butyrylcholinesterase (setting [2]), 7200 nM on Butyrylcholinesterase (read-out: IC50) and 13200 nM on Acetylcholinesterase. In addition, the Ratio IC50 in assay [1] amounted to 1.8.

For the compound `c1ccc2/c(=N/CCCCCCC/N=c3\c4ccccc4nc4n3CCC4)n3c(nc2c1)CCC3`, the IC50 was determined as 88 nM on Butyrylcholinesterase (read-out: IC50) and 79 nM on Acetylcholinesterase. In addition, in assay [1], the Ratio IC50 came out at 0.9.

Consider `CC(=O)/N=c1/c2ccccc2nc2n1CCC2`, for which the IC50 at Butyrylcholinesterase (setting [2]) is 428000 nM; on Butyrylcholinesterase (read-out: IC50), 204000 nM; against Acetylcholinesterase, 115000 nM. Also, in assay [1], the Ratio IC50 came out at 0.6.

Regarding `c1ccc2/c(=N/CCCCCCC/N=c3\c4ccccc4nc4n3CCCCC4)n3c(nc2c1)CCCCC3`, the figures for the IC50 at Butyrylcholinesterase (read-out: IC50) and against Acetylcholinesterase were 24 nM and 40 nM, respectively. Moreover, in assay [1], the Ratio IC50 stood at 1.6.

Values taken from ChEMBL document CHEMBL1149472, “Homobivalent quinazolinimines as novel nanomolar inhibitors of cholinesterases with dirigible selectivity toward butyrylcholinesterase” (J Med Chem, 2006).
